Experimental data as given in publication PMC12389580, “Neuromuscular System of Nematodes Is a Target of Synergistic Pharmacological Effects of Carvacrol and Geraniol” (Pharmaceuticals, 2025).

Tests used:
Assay in all cases: two-electrode voltage clamp, Xenopus oocytes
Assay type in all cases: cell-based
Asu-ACR-16 nAChR [1] = biological target: T1, Asu-ACR-16 nAChR (Ascaris suum, UniProt A0A0K0QSL7); settings: non-competitive inhibition of ACh-evoked currents, -60 mV
T1 construct: homopentameric nAChR; full-length subunit cRNA injected in Xenopus laevis oocytes; no auxiliary subunit mentioned
T1 sequence (A0A0K0QSL7 1-504): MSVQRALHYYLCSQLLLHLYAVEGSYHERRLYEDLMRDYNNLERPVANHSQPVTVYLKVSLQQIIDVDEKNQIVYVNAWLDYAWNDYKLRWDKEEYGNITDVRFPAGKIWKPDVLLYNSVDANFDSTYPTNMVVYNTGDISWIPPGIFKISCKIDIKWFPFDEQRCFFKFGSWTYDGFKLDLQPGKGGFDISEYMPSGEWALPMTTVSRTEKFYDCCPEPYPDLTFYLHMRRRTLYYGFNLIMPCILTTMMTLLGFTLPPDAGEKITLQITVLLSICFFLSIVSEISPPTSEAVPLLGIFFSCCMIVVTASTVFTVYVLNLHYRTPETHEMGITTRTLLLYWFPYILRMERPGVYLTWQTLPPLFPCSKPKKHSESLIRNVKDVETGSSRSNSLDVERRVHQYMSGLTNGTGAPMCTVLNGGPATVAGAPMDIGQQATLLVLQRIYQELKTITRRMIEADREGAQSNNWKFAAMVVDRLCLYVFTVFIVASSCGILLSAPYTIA

Asu-ACR-16 nAChR [2] = biological target: T1, Asu-ACR-16 nAChR
Asu-ACR-16 nAChR [3] = biological target: T1, Asu-ACR-16 nAChR; settings: non-competitive antagonist of ACh-evoked currents, -60 mV

CC(C)=CCC/C(C)=C/CO [geraniol]
Emax of ACh at 100 μM geraniol (% of response to 100 μM ACh; control 97.63 ± 0.92%) (Asu-ACR-16 nAChR [1]): 39.83 ± 1.49%

CC(=O)OCC[N+](C)(C)C [acetylcholine]
EC50 (Asu-ACR-16 nAChR [2]): 7.89 ± 1.02 µM

Cc1ccc(C(C)C)cc1O [carvacrol]
Emax of ACh at 100 μM carvacrol (% of response to 100 μM ACh) (Asu-ACR-16 nAChR [3]): 73.09 ± 1.87%
